pIC50: −log10 of the molar value. Starred links: 1 amine or outer side, 2 acyl side, 3 side chain; linkers in the order of their positions; H or OH if unused. Residues, ends and D or L forms follow the SMILES beside them. Groups on a side chain read outwards from the residue. No end group written: not given here. *: point of attachment. γGlu = O=C(O)[C@H](CCC(=O)[*:2])N[*:1]; Palmitoyl = CCCCCCCCCCCCCCCC(=O)*
How the values were obtained:
mouse GIP receptor = molecular target: T1, mouse GIP receptor (Mus musculus, UniProt Q0P543); assay: Antagonist mode cAMP assay: inhibition of mouse GIP-induced cAMP production in CHO-K1 GIPR Gs cells; assay type: cell-based; details: curve fit value in plot, unit from legend, read-out: IC50 (printed on plot, Fig 1A/1B)
T1 construct: host or cells: CHO-K1 (cAMP Hunter CHO-K1 GIPR Gs cell line)
T1 sequence (Q0P543 19-460): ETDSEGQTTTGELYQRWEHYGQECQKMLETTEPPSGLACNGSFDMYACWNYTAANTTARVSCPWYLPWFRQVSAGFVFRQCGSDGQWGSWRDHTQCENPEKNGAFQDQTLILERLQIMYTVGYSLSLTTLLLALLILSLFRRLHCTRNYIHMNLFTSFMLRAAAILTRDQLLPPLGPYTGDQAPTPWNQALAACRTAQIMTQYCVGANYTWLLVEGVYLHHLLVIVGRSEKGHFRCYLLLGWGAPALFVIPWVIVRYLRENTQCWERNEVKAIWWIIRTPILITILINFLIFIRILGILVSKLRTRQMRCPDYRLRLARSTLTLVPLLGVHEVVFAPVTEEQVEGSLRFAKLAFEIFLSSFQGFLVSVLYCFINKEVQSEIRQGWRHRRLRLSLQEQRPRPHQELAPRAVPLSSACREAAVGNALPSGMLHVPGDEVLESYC
Protocol: Each peptide was tested for its ability to activate or inhibit the mouse GIP receptor using the cAMP Hunter™ CHO-K1 GIPR Gs cell line, in combination with the Hit Hunter® cAMP XP+ assay for determining cAMP, according to the manufacturer’s instructions (Eurofins DiscoverX Corporation).
Fig 1 Effects of acute GIPR antagonism on glucose homeostasis and insulin secretion. GIPA-1 and GIPA-2 are antagonists of mouse GIPR. […] IC50 values (μM) are indicated on the plots. (C-J) Acute effects of GIPA-1 and GIPA-2 on glucose homeostasis and insulin secretion in lean mice. Oral glucose tolerance tests (C and E), the corresponding areas under the curve (AUC) (D and F) and insulin responses (I) following subcutaneous injections of vehicle, 1,5 and 10 mg/kg GIPA-1 (C and D) or vehicle, 1,5 and 10 mg/kg GIPA-2 (E and F) before an oral glucose administration (1.5 g/kg). […] Statistical analysis was calculated using two-way ANOVA with Tukey’s post-hoc test (C, E, G and J) and one-way ANOVA with Dunnett’s post-hoc test (D, F, H, I). *: p< 0.05, **: p < 0.01, ***: p < 0.001, ****: p<0.0001 compared to vehicle.
We began by characterising the receptor-interaction properties of GIPA-1 and GIPA-2. Their agonist and antagonist potencies were measured via a cAMP production assay in CHO-K1 cells overexpressing the mouse GIPR.

[1] = cited from earlier work
Text: Given the strong in vitro pharmacological data and our interest in other metabolic parameters such as adiposity and insulin se ...

GIPR = details: cited from earlier work
Text: Further controversy is evident with peptide based GIPR antagonists. […] In contrast, a palmitoyl variant of Pro^3GIP(3–30) ... || The GLP-1-agonist-GIPR-antagonist combination therapy reported in the present study was born from evidence of compromised gut-hormone function in obesity and diabetes as well as their postulated role in driving the beneficial metabolic effects following bariatric surgery. Indeed, GLP-1 secretion is enhanced after bariatric surgery which is thought to be a key component for the resolution of diabetes. In contrast, the controversial role of the GIP signalling pathway in dysmetabolic states has led to the pursuit of both agonist and antagonist approaches. There is a compelling ...

GIP receptor = details: humans, co-infusion with GIP(3-30)NH2; cited from earlier work
Text: (§1) It has been shown that rat and the human GIP(3-30)NH2 are effective antagonists in vivo [48, 49], so we would expect the mouse GIP(3-30)NH2 to behave in a similar manner. […] In humans GIP-induced insulin secretion was reduced by 82% during co-infusion with GIP(3-30)NH2 [48].

[2] = tested on: lean male C57BL/6JRj mice; assay: Acute intraperitoneal glucose tolerance test (IPGTT) with GIPA-2 and mouse GIP in lean mice; assay type: in vivo; details: n = 8; for plasma insulin: 0.1 mg/kg mouse GIP SC
Protocol: The effects of GIPA-2 and mouse GIP alone or in combination were studied in 10-week old lean male C57BL/6JRj mice. Animals were fasted 4 hours prior to an intraperitoneal glucose bolus (1.5 g/kg). Sixty minutes prior to glucose load animals received subcutaneous injection of 5mg/kg GIPA-2, while animals receiving mouse GIP (0.1 mg/kg) were dosed subcutaneously 15 minutes prior to glucose load. Blood glucose was measured just before the administration of GIPA-2 and at 0, 15, 30 60, 120, 180 and 240 min. Plasma insulin was measured at 0, 15 and 240 min.
Fig 1 Effects of acute GIPR antagonism on glucose homeostasis and insulin secretion. GIPA-1 and GIPA-2 are antagonists of mouse GIPR. […] IC50 values (μM) are indicated on the plots. (C-J) Acute effects of GIPA-1 and GIPA-2 on glucose homeostasis and insulin secretion in lean mice. Oral glucose tolerance tests (C and E), the corresponding areas under the curve (AUC) (D and F) and insulin responses (I) following subcutaneous injections of vehicle, 1,5 and 10 mg/kg GIPA-1 (C and D) or vehicle, 1,5 and 10 mg/kg GIPA-2 (E and F) before an oral glucose administration (1.5 g/kg). (G, H and J) Acute effect of GIPA-2 alone or in combination with mouse GIP on glucose homeostasis and insulin secretion in lean mice. Intraperitoneal glucose tolerance test cute IPGTT (G), the corresponding AUC (H) and insulin response (J) following subcutaneous injections of vehicle, 0.1 mg/kg mouse GIP, 5mg/kg GIPA-2, and combination of both. Group sizes are n = 8, and data are represented as mean ± SEM. Statistical analysis was calculated using two-way ANOVA with Tukey’s post-hoc test (C, E, G and J) and one-way ANOVA with Dunnett’s post-hoc test (D, F, H, I). *: p< 0.05, **: p < 0.01, ***: p < 0.001, ****: p<0.0001 compared to vehicle.

rats = details: 25 nmol/kg b.w. for 3 weeks, cited from earlier work
Text: as §1, with “Further controversy is evident with peptide based GIPR antagonists. […] In contrast, a palmitoyl variant of Pro^3GIP(3–30) ... || It” for “It”

## CC[C@H](C)[C@H](NC(=O)[C@H](CO)NC(=O)[C@H](Cc1ccc(O)cc1)NC(=O)[C@H](CC(=O)O)NC(=O)[C@H](CO)NC(=O)[C@@H](NC(=O)[C@H](Cc1ccccc1)NC(=O)[C@@H](NC(=O)CNC(=O)[C@@H](N)CCC(=O)O)[C@@H](C)O)[C@@H](C)CC)C(=O)N[C@@H](C)C(=O)N[C@@H](CCSC)C(=O)N[C@@H](CC(=O)O)C(=O)N[C@@H](CCCCN)C(=O)N[C@H](C(=O)N[C@@H](CCCNC(=N)N)C(=O)N[C@@H](CCC(N)=O)C(=O)N[C@@H](CCC(N)=O)C(=O)N[C@@H](CC(=O)O)C(=O)N[C@@H](Cc1ccccc1)C(=O)N[C@H](C(=O)N[C@@H](CC(N)=O)C(=O)N[C@@H](Cc1c[nH]c2ccccc12)C(=O)N[C@@H](CC(C)C)C(=O)N[C@@H](CC(C)C)C(=O)N[C@@H](C)C(=O)N[C@@H](CCC(N)=O)C(=O)N[C@@H](CCCNC(=N)N)C(N)=O)C(C)C)[C@@H](C)CC [GIPA-1, mouse GIP(3–30)NH2]
Mouse GIP receptor
  pIC50: 6.32

## CCCCCCCCCCCCCCCC(=O)N[C@@H](CCC(=O)N[C@@H](CCC(=O)NCCCC[C@H](NC(=O)[C@H](CC(=O)O)NC(=O)[C@H](CO)NC(=O)[C@@H](NC(=O)[C@H](Cc1ccccc1)NC(=O)[C@@H](NC(C)=O)[C@@H](C)O)[C@@H](C)CC)C(=O)N[C@@H](CO)C(=O)N[C@H](C(=O)N[C@@H](C)C(=O)N[C@@H](CCSC)C(=O)N[C@@H](CC(=O)O)C(=O)N[C@@H](CCCCN)C(=O)N[C@H](C(=O)N[C@@H](CCCNC(=N)N)C(=O)N[C@@H](CCC(N)=O)C(=O)N[C@@H](CCC(N)=O)C(=O)N[C@@H](CC(=O)O)C(=O)N[C@@H](Cc1ccccc1)C(=O)N[C@H](C(=O)N[C@@H](CC(N)=O)C(=O)N[C@@H](Cc1c[nH]c2ccccc12)C(=O)N[C@@H](CC(C)C)C(=O)N[C@@H](CC(C)C)C(=O)N[C@@H](C)C(=O)N[C@@H](CCC(N)=O)C(=O)N[C@@H](CCCCN)C(=O)NCC(=O)N[C@@H](CCCCN)C(=O)N[C@@H](CCCCN)C(=O)N[C@@H](CC(N)=O)C(=O)N[C@@H](CC(=O)O)C(=O)N[C@@H](Cc1c[nH]c2ccccc12)C(=O)N[C@@H](CCCCN)C(=O)N[C@@H](Cc1c[nH]cn1)C(=O)N[C@@H](CC(N)=O)C(=O)N[C@H](C(=O)N[C@H](C(=O)N[C@@H](CCC(N)=O)C(=O)O)[C@@H](C)O)[C@@H](C)CC)C(C)C)[C@@H](C)CC)[C@@H](C)CC)C(=O)O)C(=O)O [GIPA-2, N^αAc-K10[γEγE-C16]-Arg18-hGIP(5–42)] (Ac-TFISDK([γGlu-γGlu-Palmitoyl])SIAMDKIRQQDFVNWLLAQKGKKNDWKHNITQ-OH)
[1]
  plasma half-life and in vivo duration of action: extended plasma half-life
Mouse GIP receptor
  pIC50: 8.53

## (Pro3)-GIP: GIPR antagonist subsequently found to also possess partial agonist properties (YAPGTFISDYSIAMDKIHQQDFVNWLLAQKGKKNDWKHNITQ; Gastric inhibitory polypeptide; UniProt P09681 52-93, looked up, variant E3P)
GIPR
  GIPR agonist/antagonist character: originally characterized as an antagonist but was subsequently found to also possess partial agonist properties

## GIP(3–30)NH2: N-terminally truncated form of GIP, potent peptide-based antagonist; species not stated (EGTFISDYSIAMDKIHQQDFVNWLLAQK-NH2; UniProt P09681 54-81, looked up, fragment)
GIPR
  GIPR antagonist potency: potent peptide-based antagonist

## human GIP(3-30)NH2: the human peptide sequence of GIP(3-30)NH2 (EGTFISDYSIAMDKIHQQDFVNWLLAQK-NH2; UniProt P09681 54-81, looked up, fragment)
GIP receptor
  reduction of GIP-induced insulin secretion: 82%
[1]; human peptide sequence, in humans
  plasma elimination half-life: 7.7 ± 1.4 min

## mouse GIP: Mouse GIP was sourced from Phoenix Pharmaceuticals (YAEGTFISDYSIAMDKIRQQDFVNWLLAQRGKKSDWKHNITQ; Gastric inhibitory polypeptide; UniProt P48756 44-85, looked up)
[2]; 5 mg/kg GIPA-2 SC 60 min and/or 0.1 mg/kg mouse GIP SC 15 min before ip glucose 1.5 g/kg
  glucose tolerance (IPGTT): significantly improved glucose tolerance
[2]; 15 and 240 min timepoints
  plasma insulin: This effect was not observed
[2]; 15 minutes after mouse GIP, just prior to glucose bolus (0 min), 5 mg/kg GIPA-2 SC
  plasma insulin: robust increase in plasma insulin

## rat GIP(3–30)NH2: GIPR antagonist, rat GIP(3–30)NH2
rats; sub-chronic dosing, rats fed normal chow
  body weight, fat mass, triglycerides, LPL, leptin: significantly increased body weight, body fat mass, triglycerides, LPL, and leptin levels
rats; subchronic treatment
  food intake or bone resorption: did not modify food intake or bone resorption

— PMC8011784, “Chronic peptide-based GIP receptor inhibition exhibits modest glucose metabolic changes in mice when administered either alone or combined with GLP-1 agonism” (PLoS ONE, 2021)
